Data reported in article PMC5564600 (Oncotarget, 2017).

Assays:
Assay in all cases: biochemical
Assay type in all cases: binding
panel of 442 kinases [1] = biological target: T1, panel of 442 kinases (Homo sapiens, UniProt P00533, DEL746-750); settings: EGFR(E746-A750del); for remaining activity at 1 µM: read-out: % of control at 1 µM
T1 construct: purchased Ambit Biosciences (scanMAXX KINOMEscan)

panel of 442 kinases [2] = biological target: T2, panel of 442 kinases (Homo sapiens, UniProt Q16513); settings: kinase PKN2; for remaining activity at 1 µM: read-out: PKN2 (% of control at 1 µM)
T2 construct: purchased Ambit Biosciences (scanMAXX KINOMEscan)
T2 sequence (Q16513 whole entry): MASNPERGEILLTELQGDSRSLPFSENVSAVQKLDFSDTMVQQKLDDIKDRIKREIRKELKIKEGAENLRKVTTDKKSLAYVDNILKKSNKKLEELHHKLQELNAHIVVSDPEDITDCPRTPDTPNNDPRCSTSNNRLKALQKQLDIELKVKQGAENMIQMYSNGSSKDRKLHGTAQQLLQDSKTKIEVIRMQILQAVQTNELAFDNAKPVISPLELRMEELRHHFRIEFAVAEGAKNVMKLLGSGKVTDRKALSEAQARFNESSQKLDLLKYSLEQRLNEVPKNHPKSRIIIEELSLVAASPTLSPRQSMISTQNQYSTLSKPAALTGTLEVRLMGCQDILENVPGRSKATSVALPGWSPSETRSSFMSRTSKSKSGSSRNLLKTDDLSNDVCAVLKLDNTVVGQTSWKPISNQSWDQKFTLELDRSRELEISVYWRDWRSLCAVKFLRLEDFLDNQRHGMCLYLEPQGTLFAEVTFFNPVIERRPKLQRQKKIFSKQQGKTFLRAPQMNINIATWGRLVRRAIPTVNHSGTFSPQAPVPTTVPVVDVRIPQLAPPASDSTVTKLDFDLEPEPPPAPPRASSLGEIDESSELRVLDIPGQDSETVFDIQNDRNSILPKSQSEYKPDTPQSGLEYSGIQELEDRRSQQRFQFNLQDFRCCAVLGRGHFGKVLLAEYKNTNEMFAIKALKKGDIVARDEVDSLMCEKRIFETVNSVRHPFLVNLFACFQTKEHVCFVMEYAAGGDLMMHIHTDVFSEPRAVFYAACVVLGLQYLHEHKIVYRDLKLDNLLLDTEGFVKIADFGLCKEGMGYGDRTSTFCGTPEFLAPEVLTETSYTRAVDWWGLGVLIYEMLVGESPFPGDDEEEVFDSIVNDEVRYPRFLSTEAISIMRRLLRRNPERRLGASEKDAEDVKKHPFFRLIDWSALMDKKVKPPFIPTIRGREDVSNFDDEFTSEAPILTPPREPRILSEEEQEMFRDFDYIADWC

panel of 442 kinases [3] = biological target: T3, panel of 442 kinases (Homo sapiens, UniProt Q02156); settings: kinase PRKCE; for remaining activity at 1 µM: read-out: PRKCE (% of control at 1 µM)
T3 construct: purchased Ambit Biosciences (scanMAXX KINOMEscan)
T3 sequence (Q02156 1-737): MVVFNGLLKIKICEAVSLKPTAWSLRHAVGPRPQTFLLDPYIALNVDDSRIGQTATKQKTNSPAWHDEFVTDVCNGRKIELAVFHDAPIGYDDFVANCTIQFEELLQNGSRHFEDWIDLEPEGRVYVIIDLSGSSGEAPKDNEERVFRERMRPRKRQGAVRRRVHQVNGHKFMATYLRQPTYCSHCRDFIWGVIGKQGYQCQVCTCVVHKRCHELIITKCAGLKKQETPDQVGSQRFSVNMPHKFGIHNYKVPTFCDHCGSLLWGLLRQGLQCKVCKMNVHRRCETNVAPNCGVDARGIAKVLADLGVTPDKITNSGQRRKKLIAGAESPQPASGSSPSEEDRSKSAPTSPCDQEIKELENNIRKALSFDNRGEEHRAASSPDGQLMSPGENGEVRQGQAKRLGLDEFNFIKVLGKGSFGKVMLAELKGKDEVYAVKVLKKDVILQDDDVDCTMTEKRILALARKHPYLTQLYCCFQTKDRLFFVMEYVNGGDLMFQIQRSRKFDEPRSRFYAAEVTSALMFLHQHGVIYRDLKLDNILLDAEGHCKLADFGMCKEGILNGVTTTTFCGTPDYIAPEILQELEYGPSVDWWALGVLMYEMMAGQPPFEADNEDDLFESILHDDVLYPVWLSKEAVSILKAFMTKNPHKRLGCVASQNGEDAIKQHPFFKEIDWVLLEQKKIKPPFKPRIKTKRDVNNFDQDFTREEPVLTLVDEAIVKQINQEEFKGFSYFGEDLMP

panel of 442 kinases [4] = biological target: T4, panel of 442 kinases (Homo sapiens, UniProt Q13464); settings: kinase ROCK1; for remaining activity at 1 µM: read-out: ROCK1 (% of control at 1 µM)
T4 construct: purchased Ambit Biosciences (scanMAXX KINOMEscan)
T4 sequence (Q13464 whole entry): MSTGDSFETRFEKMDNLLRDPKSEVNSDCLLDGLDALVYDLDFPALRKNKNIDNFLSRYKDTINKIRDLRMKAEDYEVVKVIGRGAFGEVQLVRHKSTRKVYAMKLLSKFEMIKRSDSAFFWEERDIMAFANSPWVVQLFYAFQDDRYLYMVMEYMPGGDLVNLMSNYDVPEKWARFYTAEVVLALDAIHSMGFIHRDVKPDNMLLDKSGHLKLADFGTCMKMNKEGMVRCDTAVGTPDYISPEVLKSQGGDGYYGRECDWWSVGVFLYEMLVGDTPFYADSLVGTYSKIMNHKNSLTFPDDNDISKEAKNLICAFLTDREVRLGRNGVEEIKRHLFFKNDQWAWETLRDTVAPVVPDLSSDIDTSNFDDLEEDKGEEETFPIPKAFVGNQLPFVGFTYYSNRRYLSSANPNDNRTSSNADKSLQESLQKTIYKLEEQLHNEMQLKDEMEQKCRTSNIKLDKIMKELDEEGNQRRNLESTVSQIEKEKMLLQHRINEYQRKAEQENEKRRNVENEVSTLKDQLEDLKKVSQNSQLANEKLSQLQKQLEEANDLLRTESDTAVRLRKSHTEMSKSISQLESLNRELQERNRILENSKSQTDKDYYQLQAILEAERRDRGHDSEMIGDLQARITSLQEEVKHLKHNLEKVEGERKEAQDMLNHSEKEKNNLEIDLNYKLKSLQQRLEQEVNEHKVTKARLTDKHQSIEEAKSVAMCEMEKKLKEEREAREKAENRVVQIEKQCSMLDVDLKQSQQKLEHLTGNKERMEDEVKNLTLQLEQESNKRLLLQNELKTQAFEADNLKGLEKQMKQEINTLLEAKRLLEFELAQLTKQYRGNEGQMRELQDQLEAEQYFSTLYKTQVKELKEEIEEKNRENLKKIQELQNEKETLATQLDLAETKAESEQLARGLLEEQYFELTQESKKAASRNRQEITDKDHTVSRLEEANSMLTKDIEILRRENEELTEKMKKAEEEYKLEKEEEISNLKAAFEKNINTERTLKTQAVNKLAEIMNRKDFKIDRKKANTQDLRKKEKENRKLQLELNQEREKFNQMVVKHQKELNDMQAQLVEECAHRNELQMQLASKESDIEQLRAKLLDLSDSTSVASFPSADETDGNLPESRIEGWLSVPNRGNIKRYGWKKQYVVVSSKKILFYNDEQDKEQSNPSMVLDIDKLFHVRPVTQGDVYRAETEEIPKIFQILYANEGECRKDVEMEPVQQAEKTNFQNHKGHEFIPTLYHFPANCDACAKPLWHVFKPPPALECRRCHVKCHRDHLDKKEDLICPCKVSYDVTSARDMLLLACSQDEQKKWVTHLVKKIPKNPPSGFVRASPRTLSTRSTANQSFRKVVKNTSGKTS

panel of 442 kinases [5] = biological target: T5, panel of 442 kinases (Homo sapiens, UniProt O14730); settings: kinase RIOK3; for remaining activity at 1 µM: read-out: RIOK3 (% of control at 1 µM)
T5 construct: purchased Ambit Biosciences (scanMAXX KINOMEscan)
T5 sequence (O14730 1-519): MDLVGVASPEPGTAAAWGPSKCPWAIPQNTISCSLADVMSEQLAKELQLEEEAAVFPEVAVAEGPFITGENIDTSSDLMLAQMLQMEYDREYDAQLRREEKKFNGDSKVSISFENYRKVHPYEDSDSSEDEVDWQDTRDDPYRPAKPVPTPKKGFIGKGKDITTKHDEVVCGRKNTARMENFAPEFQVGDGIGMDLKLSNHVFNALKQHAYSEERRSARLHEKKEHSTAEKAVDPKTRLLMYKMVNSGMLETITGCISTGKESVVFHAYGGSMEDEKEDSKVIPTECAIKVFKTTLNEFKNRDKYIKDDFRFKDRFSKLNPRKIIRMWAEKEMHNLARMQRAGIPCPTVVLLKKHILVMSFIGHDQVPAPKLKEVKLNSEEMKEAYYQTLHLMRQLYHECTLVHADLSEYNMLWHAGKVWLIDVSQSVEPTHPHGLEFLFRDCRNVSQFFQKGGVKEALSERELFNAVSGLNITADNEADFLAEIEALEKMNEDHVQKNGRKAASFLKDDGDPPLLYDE

panel of 442 kinases [6] = biological target: T6, panel of 442 kinases (Homo sapiens, UniProt O43318); settings: kinase TAK1; for remaining activity at 1 µM: read-out: TAK1 (% of control at 1 µM)
T6 construct: purchased Ambit Biosciences (scanMAXX KINOMEscan)
T6 sequence (O43318 1-606): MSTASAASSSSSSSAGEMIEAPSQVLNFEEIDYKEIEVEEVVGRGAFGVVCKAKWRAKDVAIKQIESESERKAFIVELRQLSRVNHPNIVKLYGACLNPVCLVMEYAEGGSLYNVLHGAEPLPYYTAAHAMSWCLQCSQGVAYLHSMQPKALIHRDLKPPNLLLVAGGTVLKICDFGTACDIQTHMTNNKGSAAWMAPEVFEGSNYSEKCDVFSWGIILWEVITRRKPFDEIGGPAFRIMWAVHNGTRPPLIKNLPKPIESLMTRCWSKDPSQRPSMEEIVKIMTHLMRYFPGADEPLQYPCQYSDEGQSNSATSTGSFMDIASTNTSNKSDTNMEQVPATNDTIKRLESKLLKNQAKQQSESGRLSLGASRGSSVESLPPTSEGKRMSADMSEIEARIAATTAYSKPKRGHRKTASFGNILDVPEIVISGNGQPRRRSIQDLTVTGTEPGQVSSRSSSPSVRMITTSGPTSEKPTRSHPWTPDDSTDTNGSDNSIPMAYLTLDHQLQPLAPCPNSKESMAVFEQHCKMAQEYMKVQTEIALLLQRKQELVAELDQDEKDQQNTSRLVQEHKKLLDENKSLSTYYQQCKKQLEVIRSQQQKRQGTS

panel of 442 kinases [7] = biological target: T7, panel of 442 kinases (Homo sapiens, UniProt P23443); settings: kinase S6K1; for remaining activity at 1 µM: read-out: S6K1 (% of control at 1 µM)
T7 construct: purchased Ambit Biosciences (scanMAXX KINOMEscan)
T7 sequence (P23443 whole entry): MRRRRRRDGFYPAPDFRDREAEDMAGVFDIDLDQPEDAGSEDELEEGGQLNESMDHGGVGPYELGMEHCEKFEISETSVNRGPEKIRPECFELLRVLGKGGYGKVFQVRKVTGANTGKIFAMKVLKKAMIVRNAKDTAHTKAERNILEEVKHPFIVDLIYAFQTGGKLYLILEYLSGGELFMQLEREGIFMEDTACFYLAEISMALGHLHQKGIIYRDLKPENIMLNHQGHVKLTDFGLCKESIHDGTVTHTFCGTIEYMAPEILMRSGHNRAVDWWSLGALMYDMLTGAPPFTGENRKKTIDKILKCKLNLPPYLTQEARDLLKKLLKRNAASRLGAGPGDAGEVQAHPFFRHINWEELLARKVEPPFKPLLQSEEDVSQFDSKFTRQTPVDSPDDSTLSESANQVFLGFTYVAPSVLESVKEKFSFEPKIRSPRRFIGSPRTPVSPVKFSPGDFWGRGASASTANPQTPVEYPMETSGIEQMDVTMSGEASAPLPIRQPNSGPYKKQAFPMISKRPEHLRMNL

panel of 442 kinases [8] = biological target: T8, panel of 442 kinases (Homo sapiens, UniProt Q86Z02); settings: kinase HIPK1; for remaining activity at 1 µM: read-out: % of control at 1 µM
T8 construct: purchased Ambit Biosciences (scanMAXX KINOMEscan)

panel of 442 kinases [9] = biological target: T9, panel of 442 kinases (Homo sapiens, UniProt P11362); settings: FGFR1; for remaining activity at 1 µM: read-out: % of control at 1 µM
T9 construct: purchased Ambit Biosciences (scanMAXX KINOMEscan)

panel of 442 kinases [10] = biological target: T10, panel of 442 kinases (Homo sapiens, UniProt P06241); settings: kinase FYN; for remaining activity at 1 µM: read-out: % of control at 1 µM
T10 construct: purchased Ambit Biosciences (scanMAXX KINOMEscan)
T10 sequence (P06241 whole entry): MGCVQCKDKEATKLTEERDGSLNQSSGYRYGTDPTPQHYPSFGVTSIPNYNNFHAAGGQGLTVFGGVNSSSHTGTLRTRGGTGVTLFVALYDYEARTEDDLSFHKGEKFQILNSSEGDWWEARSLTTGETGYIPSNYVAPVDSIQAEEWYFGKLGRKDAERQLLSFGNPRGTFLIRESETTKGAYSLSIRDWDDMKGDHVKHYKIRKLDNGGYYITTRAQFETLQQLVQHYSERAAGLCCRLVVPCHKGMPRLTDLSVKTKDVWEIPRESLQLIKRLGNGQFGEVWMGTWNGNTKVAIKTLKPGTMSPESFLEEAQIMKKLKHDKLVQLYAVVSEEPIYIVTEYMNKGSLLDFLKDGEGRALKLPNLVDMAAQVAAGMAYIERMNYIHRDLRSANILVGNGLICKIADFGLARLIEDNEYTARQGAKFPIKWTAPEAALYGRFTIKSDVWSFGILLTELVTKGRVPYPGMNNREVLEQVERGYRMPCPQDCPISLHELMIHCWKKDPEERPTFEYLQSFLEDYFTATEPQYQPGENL

[11] = 10 µM, read-out: % of control at 10 µM

T1 sequence (P00533 with tags, fused parts or gaps DEL746-750): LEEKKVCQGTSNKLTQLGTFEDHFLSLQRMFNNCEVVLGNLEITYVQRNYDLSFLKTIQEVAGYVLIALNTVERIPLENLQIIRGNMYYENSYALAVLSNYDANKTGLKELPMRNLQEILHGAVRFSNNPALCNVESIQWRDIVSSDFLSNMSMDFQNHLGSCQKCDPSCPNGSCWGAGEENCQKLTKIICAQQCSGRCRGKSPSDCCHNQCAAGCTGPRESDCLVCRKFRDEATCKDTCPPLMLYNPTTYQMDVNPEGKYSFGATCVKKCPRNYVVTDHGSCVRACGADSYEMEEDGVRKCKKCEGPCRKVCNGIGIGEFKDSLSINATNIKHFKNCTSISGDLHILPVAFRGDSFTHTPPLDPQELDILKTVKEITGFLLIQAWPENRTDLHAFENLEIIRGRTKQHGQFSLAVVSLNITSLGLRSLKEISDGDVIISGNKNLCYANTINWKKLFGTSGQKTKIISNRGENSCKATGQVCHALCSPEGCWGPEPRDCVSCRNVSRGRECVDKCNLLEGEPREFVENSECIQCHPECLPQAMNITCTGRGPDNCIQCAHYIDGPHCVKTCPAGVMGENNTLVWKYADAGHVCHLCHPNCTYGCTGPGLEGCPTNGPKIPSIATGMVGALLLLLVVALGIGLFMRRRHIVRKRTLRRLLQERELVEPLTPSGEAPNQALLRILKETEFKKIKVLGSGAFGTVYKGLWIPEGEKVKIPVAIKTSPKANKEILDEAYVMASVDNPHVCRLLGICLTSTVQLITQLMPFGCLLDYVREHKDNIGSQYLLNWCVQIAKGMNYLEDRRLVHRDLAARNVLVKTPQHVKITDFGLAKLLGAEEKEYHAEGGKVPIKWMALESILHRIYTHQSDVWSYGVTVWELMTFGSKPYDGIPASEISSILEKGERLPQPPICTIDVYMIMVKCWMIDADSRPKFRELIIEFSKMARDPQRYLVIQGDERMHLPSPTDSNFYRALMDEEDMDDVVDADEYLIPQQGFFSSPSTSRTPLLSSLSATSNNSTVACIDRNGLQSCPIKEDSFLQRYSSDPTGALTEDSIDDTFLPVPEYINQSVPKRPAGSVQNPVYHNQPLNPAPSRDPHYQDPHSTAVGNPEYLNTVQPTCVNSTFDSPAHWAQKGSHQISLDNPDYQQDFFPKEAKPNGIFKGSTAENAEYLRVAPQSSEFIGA

Row | Structure (SMILES) | remaining activity at 1 µM (panel of 442 kinases [1]) | remaining activity at 10 µM (panel of 442 kinases [1]; [11]) | remaining activity at 1 µM (panel of 442 kinases [2]) | remaining activity at 10 µM (panel of 442 kinases [2]; 10 µM, read-out: PKN2 (% of control at 10 µM)) | remaining activity at 1 µM (panel of 442 kinases [3]) | remaining activity at 10 µM (panel of 442 kinases [3]; 10 µM, read-out: PRKCE (% of control at 10 µM)) | remaining activity at 1 µM (panel of 442 kinases [4]) | remaining activity at 10 µM (panel of 442 kinases [4]; 10 µM, read-out: ROCK1 (% of control at 10 µM)) | remaining activity at 1 µM (panel of 442 kinases [5]) | remaining activity at 10 µM (panel of 442 kinases [5]; 10 µM, read-out: RIOK3 (% of control at 10 µM)) | remaining activity at 1 µM (panel of 442 kinases [6]) | remaining activity at 10 µM (panel of 442 kinases [6]; 10 µM, read-out: TAK1 (% of control at 10 µM)) | remaining activity at 1 µM (panel of 442 kinases [7]) | remaining activity at 10 µM (panel of 442 kinases [7]; 10 µM, read-out: S6K1 (% of control at 10 µM)) | remaining activity at 1 µM (panel of 442 kinases [8]) | remaining activity at 10 µM (panel of 442 kinases [8]; [11]) | remaining activity at 1 µM (panel of 442 kinases [9]) | remaining activity at 10 µM (panel of 442 kinases [9]; [11]) | remaining activity at 1 µM (panel of 442 kinases [10]) | remaining activity at 10 µM (panel of 442 kinases [10]; [11])
1 | Nc1cc(C(F)(F)F)c(-c2cc(N3CCOCC3)nc(N3CCOCC3)n2)cn1 [Buparlisib] | 100% | 100% | 83% | 100% | 97% | 100% | 86% | 80% | 95% | 95% | 100% | 100% | 88% | 99% | 100% | 89% | 100% | 100% | 100% | 100%
2 | Cn1c(=O)n(-c2ccc(C(C)(C)C#N)cc2)c2c3cc(-c4cnc5ccccc5c4)ccc3ncc21 [Dactolisib, 2-methyl-2-[4-(3-methyl-2-oxo-8-quinolin-3-yl-2,3-dihydroimidazo[4,5-c]quinolin-1-yl)-phenyl] propionitrile] | 100% | – | 92% | – | 78% | – | 52% | – | 70% | – | 55% | – | – | – | 72% | – | 94% | – | 81% | –
3 | COc1ncc(-c2ccc3nccc(-c4ccnnc4)c3c2)cc1NS(=O)(=O)c1ccc(F)cc1F [Omipalisib] | 97% | – | 100% | – | 100% | – | 88% | – | 95% | – | 82% | – | 100% | – | 99% | – | 94% | – | 100% | –
4 | FC(F)c1nc2ccccc2n1-c1nc(N2CCOCC2)nc(N2CCOCC2)n1 [ZSTK474, 2-(difluoromethyl)-1-[4,6-di(4-morpholinyl)-1,3,5-triazin-2-yl]-1H-benzimidazole] | 94% | – | 100% | – | 100% | – | 75% | – | 71% | – | 68% | – | 91% | – | 86% | – | 100% | – | 80% | –
